Measurements taken from patent US11020399B2, “Intermediates useful in the synthesis of compounds as modulators of protein kinases” (Rhizen Pharmaceuticals SA, priority 2011, dated 2021).

Assays:
PI3kδ = PI3kδ (Homo sapiens, UniProt O00329); assay: Fluorescent (HTRF) determination of PI3 kinase enzyme activity, PI3Kδ; assay type: biochemical; conditions: for inhibition at 0.3 µM: 300 nM (Examples 1-59); for inhibition at 0.1 µM / % inhibition (PI3kδ) 100 nM: 100 nM (Examples 60-137); for % inhibition (PI3kδ) 100 nM: 0.1 µM
PI3kδ, sequence (O00329 whole entry, canonical isoform): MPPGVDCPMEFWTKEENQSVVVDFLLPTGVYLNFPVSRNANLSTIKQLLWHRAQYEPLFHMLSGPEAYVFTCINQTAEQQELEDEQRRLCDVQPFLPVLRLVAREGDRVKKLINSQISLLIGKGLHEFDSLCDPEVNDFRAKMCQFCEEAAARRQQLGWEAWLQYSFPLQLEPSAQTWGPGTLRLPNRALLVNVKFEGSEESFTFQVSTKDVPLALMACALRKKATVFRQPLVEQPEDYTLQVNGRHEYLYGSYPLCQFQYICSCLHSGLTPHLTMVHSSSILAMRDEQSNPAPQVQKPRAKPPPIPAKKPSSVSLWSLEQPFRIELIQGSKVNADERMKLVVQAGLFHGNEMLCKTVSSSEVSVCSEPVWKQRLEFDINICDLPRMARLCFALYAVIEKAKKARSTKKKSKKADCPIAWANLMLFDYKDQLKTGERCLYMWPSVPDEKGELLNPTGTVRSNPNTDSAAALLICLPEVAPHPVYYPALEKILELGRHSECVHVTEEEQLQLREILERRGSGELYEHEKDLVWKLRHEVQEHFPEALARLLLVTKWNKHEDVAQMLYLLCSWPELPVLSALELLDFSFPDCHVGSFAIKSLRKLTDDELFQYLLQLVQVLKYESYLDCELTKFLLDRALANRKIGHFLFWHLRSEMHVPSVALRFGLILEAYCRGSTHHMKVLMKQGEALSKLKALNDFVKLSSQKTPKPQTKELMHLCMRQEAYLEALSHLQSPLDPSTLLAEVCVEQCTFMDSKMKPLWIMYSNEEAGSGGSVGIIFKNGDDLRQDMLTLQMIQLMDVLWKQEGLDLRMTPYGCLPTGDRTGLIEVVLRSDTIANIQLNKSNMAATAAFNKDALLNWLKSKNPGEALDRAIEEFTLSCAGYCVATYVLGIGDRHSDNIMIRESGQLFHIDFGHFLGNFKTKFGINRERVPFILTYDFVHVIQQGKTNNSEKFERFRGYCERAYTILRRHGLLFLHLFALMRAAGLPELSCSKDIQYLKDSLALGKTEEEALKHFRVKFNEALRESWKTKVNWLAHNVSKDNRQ
PI3kδ, sequence (P27986 whole entry partner, canonical isoform): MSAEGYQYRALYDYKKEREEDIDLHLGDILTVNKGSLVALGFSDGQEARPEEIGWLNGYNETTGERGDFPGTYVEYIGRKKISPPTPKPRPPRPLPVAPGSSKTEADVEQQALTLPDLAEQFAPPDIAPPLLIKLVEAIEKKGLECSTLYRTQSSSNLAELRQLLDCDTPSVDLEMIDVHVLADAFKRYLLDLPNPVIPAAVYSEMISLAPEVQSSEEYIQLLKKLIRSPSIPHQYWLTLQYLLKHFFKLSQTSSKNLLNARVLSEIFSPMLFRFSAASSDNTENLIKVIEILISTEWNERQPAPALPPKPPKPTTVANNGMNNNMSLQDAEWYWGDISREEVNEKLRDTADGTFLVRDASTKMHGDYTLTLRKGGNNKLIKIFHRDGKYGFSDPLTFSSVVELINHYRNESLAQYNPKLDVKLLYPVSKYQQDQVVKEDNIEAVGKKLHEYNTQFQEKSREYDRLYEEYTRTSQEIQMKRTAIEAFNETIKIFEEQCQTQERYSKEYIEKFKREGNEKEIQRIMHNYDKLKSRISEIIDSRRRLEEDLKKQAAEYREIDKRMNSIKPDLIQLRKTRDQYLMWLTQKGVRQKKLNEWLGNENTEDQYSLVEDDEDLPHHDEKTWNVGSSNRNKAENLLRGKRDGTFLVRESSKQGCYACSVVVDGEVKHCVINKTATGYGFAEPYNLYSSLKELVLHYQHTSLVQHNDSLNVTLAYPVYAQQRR
In short: (§1)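 Human PI3K isoforms were preincubated with compound for 10 min at room temperature in 10 mM MgCl2, 5 mM DTT, 1.38 μM PIP2, then reacted 30 min after adding 400 μM ATP stock. PIP3 was read by HTRF (665/620 nm). Percent inhibition used blank and enzyme controls; single-point testing was at 1 uM for α/β and 0.3 or 0.1 uM for γ/δ.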

PI3kγ = PI3kγ (Homo sapiens, UniProt P48736); assay: Fluorescent (HTRF) determination of PI3 kinase enzyme activity, PI3Kγ; assay type: biochemical; conditions: for inhibition at 0.3 µM: 300 nM (Examples 1-59); for inhibition at 0.1 µM / % inhibition (PI3kγ) 100 nM: 100 nM (Examples 60-137)
PI3kγ, sequence (P48736 whole entry): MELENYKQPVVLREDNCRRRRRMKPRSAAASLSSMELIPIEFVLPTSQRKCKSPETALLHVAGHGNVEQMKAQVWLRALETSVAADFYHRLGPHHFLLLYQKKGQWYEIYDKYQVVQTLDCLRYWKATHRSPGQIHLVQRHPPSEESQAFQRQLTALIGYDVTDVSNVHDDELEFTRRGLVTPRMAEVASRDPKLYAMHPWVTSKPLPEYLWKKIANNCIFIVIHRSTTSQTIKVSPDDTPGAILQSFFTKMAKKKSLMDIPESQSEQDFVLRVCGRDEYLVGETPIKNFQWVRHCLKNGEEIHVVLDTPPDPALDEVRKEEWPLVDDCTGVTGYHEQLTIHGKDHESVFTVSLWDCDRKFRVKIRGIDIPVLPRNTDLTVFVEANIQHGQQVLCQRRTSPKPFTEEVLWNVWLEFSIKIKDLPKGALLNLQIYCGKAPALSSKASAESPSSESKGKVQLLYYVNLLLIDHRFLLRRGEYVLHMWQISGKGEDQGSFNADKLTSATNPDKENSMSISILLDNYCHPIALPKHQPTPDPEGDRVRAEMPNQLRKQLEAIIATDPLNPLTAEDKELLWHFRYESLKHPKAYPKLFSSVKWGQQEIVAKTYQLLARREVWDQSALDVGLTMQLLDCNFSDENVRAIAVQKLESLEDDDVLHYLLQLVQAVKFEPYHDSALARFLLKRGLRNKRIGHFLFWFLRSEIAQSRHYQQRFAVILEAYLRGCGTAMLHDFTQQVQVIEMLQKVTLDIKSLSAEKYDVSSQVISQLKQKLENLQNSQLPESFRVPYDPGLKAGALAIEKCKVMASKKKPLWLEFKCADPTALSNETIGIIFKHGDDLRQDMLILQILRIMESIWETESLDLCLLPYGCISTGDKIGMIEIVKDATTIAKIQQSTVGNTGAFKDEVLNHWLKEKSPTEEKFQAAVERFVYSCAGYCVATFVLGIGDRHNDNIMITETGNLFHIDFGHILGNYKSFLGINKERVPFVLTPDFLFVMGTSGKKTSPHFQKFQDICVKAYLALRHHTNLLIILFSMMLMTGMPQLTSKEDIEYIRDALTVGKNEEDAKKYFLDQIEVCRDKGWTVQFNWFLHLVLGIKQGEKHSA
In short: as §1

Row | inhibition at 0.3 µM (PI3kδ) [%] | melting point [°C] | inhibition at 0.3 µM (PI3kγ) [%] | inhibition at 0.1 µM (PI3kδ) [%] | inhibition at 0.1 µM (PI3kγ) [%] | SMILES | also measured
1 | 50 to 75 | 247 to 249 | 25 to 50 |  |  | CC(c1oc2cccc(F)c2c(=O)c1-c1cccc(F)c1)n1nc(-c2ccc(OC(F)(F)F)c(F)c2)c2c(N)ncnc21 (centres unmarked) [Example 45, 2-(1-(4-amino-3-(3-fluoro-4-(trifluoromethoxy)phenyl)-1H-pyrazolo[3,4-d]pyrimidin-1-yl)ethyl)-5-fluoro-3-(3-fluorophenyl)-4H-chromen-4-one] | 
2 |  | 135 to 138 |  | 25 to 50 | 25 to 50 | CC(c1oc2cccc(F)c2c(=O)c1-c1cn[nH]c1)n1nc(-c2ccc(OC(F)F)c(F)c2)c2c(N)ncnc21 (centres unmarked) [Example 91, 2-(1-(4-amino-3-(4-(difluoromethoxy)-3-fluorophenyl)-1H-pyrazolo[3,4-d]pyrimidin-1-yl)ethyl)-5-fluoro-3-(1H-pyrazol-4-yl)-4H-chromen-4-one] | 
3 |  | 242 to 245 |  | 25 to 50 | 0 to 25 | CC(c1oc2cccc(F)c2c(=O)c1-c1cccc(F)c1)n1nc(-c2ccc3c(c2)C(=O)NC3)c2c(N)ncnc21 (centres unmarked) [Example 122, 6-(4-amino-1-(1-(5-fluoro-3-(3-fluorophenyl)-4-oxo-4H-chromen-2-yl)ethyl)-1H-pyrazolo[3,4-d]pyrimidin-3-yl)isoindolin-1-one] | 
4 |  | 317 to 320 |  | 25 to 50 | 25 to 50 | CC(c1oc2cccc(F)c2c(=O)c1-c1cccc(F)c1)n1nc(-c2ccc3nccn3c2)c2c(N)ncnc21 (centres unmarked) [Example 73, 2-(1-(4-amino-3-(imidazo[1,2-a]pyridin-6-yl)-1H-pyrazolo[3,4-d]pyrimidin-1-yl)ethyl)-5-fluoro-3-(3-fluorophenyl)-4H-chromen-4-one] | 
5 | 25 to 50 | 228 to 230 | 50 to 75 |  |  | CC(c1oc2cccc(F)c2c(=O)c1-c1cccc(F)c1)n1nc(-c2ccc(C3=NCCCO3)cc2)c2c(N)ncnc21 (centres unmarked) [Example 51, 2-(1-(4-amino-3-(4-(5,6-dihydro-4H-1,3-oxazin-2-yl)phenyl)-1H-pyrazolo[3,4-d]pyrimidin-1-yl)ethyl)-5-fluoro-3-(3-fluorophenyl)-4H-chromen-4-one] | 
6 |  | 252 to 255 |  | 25 to 50 | 0 to 25 | Cc1nc(C)c(-c2nn(C(C)c3oc4cccc(F)c4c(=O)c3-c3cccc(F)c3)c3ncnc(N)c23)s1 (centres unmarked) [Example 75, 2-(1-(4-amino-3-(2,4-dimethylthiazol-5-yl)-1H-pyrazolo[3,4-d]pyrimidin-1-yl)ethyl)-5-fluoro-3-(3-fluorophenyl)-4H-chromen-4-one] | 
7 | 0 to 25 | 203 to 205 | 0 to 25 |  |  | CC(c1oc2cccc(F)c2c(=O)c1-c1cccc(F)c1)n1nc(N2CCCC2)c2c(N)ncnc21 (centres unmarked) [Example 47, 2-(1-(4-amino-3-(pyrrolidin-1-yl)-1H-pyrazolo[3,4-d]pyrimidin-1-yl)ethyl)-5-fluoro-3-(3-fluorophenyl)-4H-chromen-4-one] | 
8 |  | 232 to 235 |  | 0 to 25 | 25 to 50 | COc1c(C)cc(-c2nn(C(C)c3oc4cccc(F)c4c(=O)c3-c3cccc(F)c3)c3ncnc(N)c23)cc1C (centres unmarked) [Example 71, 2-(1-(4-amino-3-(4-methoxy-3,5-dimethylphenyl)-1H-pyrazolo[3,4-d]pyrimidin-1-yl)ethyl)-5-fluoro-3-(3-fluorophenyl)-4H-chromen-4-one] | 
9 |  | 193 to 196 |  |  |  | CNc1ncnc2c1c(-c1ccc(OC(C)C)c(F)c1)nn2C(C)c1oc2cccc(F)c2c(=O)c1-c1cccc(F)c1 (centres unmarked) [Example 84, 5-fluoro-2-(1-(3-(3-fluoro-4-isopropoxyphenyl)-4-(methylamino)-1H-pyrazolo[3,4-d]pyrimidin-1-yl)ethyl)-3-(3-fluorophenyl)-4H-chromen-4-one] | IC50 (PI3kδ): ≤ 50 nM; % inhibition (PI3kδ) 100 nM (PI3kδ): B (B=>50 to 75%); IC50 (PI3kγ): > 500 nM; % inhibition (PI3kγ) 100 nM (PI3kγ): C (C=>25 to 50%)
10 | 0 to 25 | 225 to 228 | 50 to 75 |  |  | CC(c1oc2cccc(F)c2c(=O)c1-c1cccc(F)c1)n1nc(-c2ccc(S(=O)(=O)NC3CC3)cc2)c2c(N)ncnc21 (centres unmarked) [Example 57, 4-(4-amino-1-(1-(5-fluoro-3-(3-fluorophenyl)-4-oxo-4H-chromen-2-yl)ethyl)-1H-pyrazolo[3,4-d]pyrimidin-3-yl)-N-cyclopropylbenzenesulfonamide] | 
11 | 25 to 50 | 252 to 255 | 50 to 75 |  |  | CC(c1oc2cccc(F)c2c(=O)c1-c1cccc(F)c1)n1nc(-c2ccc(CNS(C)(=O)=O)cc2)c2c(N)ncnc21 (centres unmarked) [Example 55, N-(4-(4-amino-1-(1-(5-fluoro-3-(3-fluorophenyl)-4-oxo-4H-chromen-2-yl)ethyl)-1H-pyrazolo[3,4-d]pyrimidin-3-yl)benzyl)methanesulfonamide] | 
12 |  | 186 to 189 |  | 25 to 50 | 0 to 25 | COc1nc(N[C@@H](C)c2oc3cccc(F)c3c(=O)c2-c2cccc(F)c2)c2nc[nH]c2n1 (single isomer, unassigned) [Example 134] | 
13 |  | 204 to 207 |  | 0 to 25 | 25 to 50 | COCc1ccc(-c2nn(C(C)c3oc4cccc(F)c4c(=O)c3-c3cccc(F)c3)c3ncnc(N)c23)cc1 (centres unmarked) [Example 72, 2-(1-(4-amino-3-(4-(methoxymethyl)phenyl)-1H-pyrazolo[3,4-d]pyrimidin-1-yl)ethyl)-5-fluoro-3-(3-fluorophenyl)-4H-chromen-4-one] | 
14 |  | 183 to 186 |  | 25 to 50 | 25 to 50 | C[C@H](Nc1nc(F)nc2[nH]cnc12)c1oc2cccc(F)c2c(=O)c1-c1cccc(F)c1 (racemic) [Example 136, (S)/(R)-5-fluoro-2-(1-(2-fluoro-9H-purin-6-ylamino)ethyl)-3-(3-fluorophenyl)-4H-chromen-4-one] | 
15 | 0 to 25 | 254 to 257 | 50 to 75 |  |  | CC(C)NC(=O)c1ccc(-c2nn(C(C)c3oc4cccc(F)c4c(=O)c3-c3cccc(F)c3)c3ncnc(N)c23)cc1F (centres unmarked) [Example 53, 4-(4-amino-1-(1-(5-fluoro-3-(3-fluorophenyl)-4-oxo-4H-chromen-2-yl)ethyl)-1H-pyrazolo[3,4-d]pyrimidin-3-yl)-2-fluoro-N-isopropylbenzamide] | 
16 |  | 136 to 138 |  |  |  | CC(C)Oc1ccc(-c2nn(C(C)c3oc4cccc(F)c4c(=O)c3-c3cccc(F)c3)c3ncnc(N4CCOCC4)c23)cc1F (racemic) [Example 116, (S)/(R)-5-fluoro-2-(1-(3-(3-fluoro-4-isopropoxyphenyl)-4-morpholino-1H-pyrazolo[3,4-d]pyrimidin-1-yl)ethyl)-3-(3-fluorophenyl)-4H-chromen-4-one] | % inhibition (PI3kδ) 100 nM (PI3kδ): D (D=0 to 25%); % inhibition (PI3kγ) 100 nM (PI3kγ; 0.1 µM): D (D=0 to 25%)
17 |  | 219 to 222 |  | 25 to 50 | 25 to 50 | COc1nc(N[C@H](C)c2oc3cccc(F)c3c(=O)c2-c2cccc(F)c2)c2nc[nH]c2n1 (single isomer, unassigned) [Example 135] | 
